In PMC8745178, “Methyl 2-Halo-4-Substituted-5-Sulfamoyl-Benzoates as High Affinity and Selective Inhibitors of Carbonic Anhydrase IX” (International Journal of Molecular Sciences, 2021):
Where “and” joins values, the source holds several entries; their conditions need not be identical. Equal values may be shown once.

How the values were obtained:
CAI [1] = biological target: T1, CAI (Homo sapiens, UniProt P00915); assay: fluorescent thermal shift assay (FTSA), CAI; type: binding; details: 37 °C; for ΔGintr CAI: converted from Kd_intr, independent of pH; for ΔGobs CAI: converted from Kd_obs, pH 7.0, FTSA
CAII [2] = biological target: T2, CAII (Homo sapiens, UniProt P00918); assay: fluorescent thermal shift assay (FTSA), CAII; type: binding; details: 37 °C; for ΔGintr CAII: converted from Kd_intr, independent of pH; for ΔGobs CAII: converted from Kd_obs, pH 7.0, FTSA
CAIII = CAIII (Homo sapiens, UniProt P07451); assay: fluorescent thermal shift assay (FTSA), CAIII; type: binding; details: 37 °C; for ΔGobs CAIII: converted from Kd_obs, pH 7.0, FTSA; for ΔGintr CAIII: converted from Kd_intr, independent of pH
CAIV = CAIV (Homo sapiens, UniProt P22748); assay: fluorescent thermal shift assay (FTSA), CAIV; type: binding; details: 37 °C; for ΔGintr CAIV: converted from Kd_intr, independent of pH; for ΔGobs CAIV: converted from Kd_obs, pH 7.0, FTSA
CAVA = CAVA (Homo sapiens, UniProt P35218); assay: fluorescent thermal shift assay (FTSA), CAVA; type: binding; details: 37 °C; for ΔGintr CAVA: converted from Kd_intr, independent of pH; for ΔGobs CAVA: converted from Kd_obs, pH 7.0, FTSA
CAVB = CAVB (Homo sapiens, UniProt Q9Y2D0); assay: fluorescent thermal shift assay (FTSA), CAVB; type: binding; details: 37 °C; for ΔGintr CAVB: converted from Kd_intr, independent of pH; for ΔGobs CAVB: converted from Kd_obs, pH 7.0, FTSA
CAVI = CAVI (Homo sapiens, UniProt P23280); assay: fluorescent thermal shift assay (FTSA), CAVI; type: binding; details: 37 °C; for ΔGobs CAVI: converted from Kd_obs, pH 7.0, FTSA; for ΔGintr CAVI: converted from Kd_intr, independent of pH
CAVII = CAVII (Homo sapiens, UniProt P43166); assay: fluorescent thermal shift assay (FTSA), CAVII; type: binding; details: 37 °C; for ΔGintr CAVII: converted from Kd_intr, independent of pH; for ΔGobs CAVII: converted from Kd_obs, pH 7.0, FTSA
CAIX [3] = biological target: T3, CAIX (Homo sapiens, UniProt Q16790); assay: fluorescent thermal shift assay (FTSA), CAIX; type: binding; details: for ΔGobs CAIX: pH 7
CAXIII = CAXIII (Homo sapiens, UniProt Q8N1Q1); assay: fluorescent thermal shift assay (FTSA), CAXIII; type: binding; details: 37 °C; for ΔGintr CAXIII: converted from Kd_intr, independent of pH; for ΔGobs CAXIII: converted from Kd_obs, pH 7.0, FTSA
CAXIV = CAXIV (Homo sapiens, UniProt Q9ULX7); assay: fluorescent thermal shift assay (FTSA), CAXIV; type: binding; details: 37 °C; for ΔGintr CAXIV: converted from Kd_intr, independent of pH; for ΔGobs CAXIV: converted from Kd_obs, pH 7.0, FTSA
[4] = determination of pKa of the sulfonamide group by UV-VIS spectra at various pH; type: physicochemical; details: for f RSO2NH-, fraction of deprotonated sulfonamide: at pH 7.0, calculated from pKa; for pKa: calculated from spectra at various pH, 37 °C
CAXII [5] = biological target: T4, CAXII (Homo sapiens, UniProt O43570); details: for -TΔSintr CAXII / ΔHintr CAXII: intrinsic, 37 °C; for ΔHintr CAXII: independent of pH and buffer; for ΔHobs CAXII: observed, sodium phosphate buffer pH 7.0, 37 °C, ITC
[6] = 37 °C
CAII [7] = assay: fluorescent thermal shift assay (FTSA), CAII; type: binding, human; details: intrinsic
CAI [8] = biological target: T1, CAI
CAII [9] = biological target: T2, CAII
CAXII [10] = biological target: T4, CAXII; assay: fluorescent thermal shift assay (FTSA), CAXII; type: binding; details: 37 °C
[11] = solubility observed visually and in absorption spectra; type: physicochemical; design: key: low solubility, LS
[12] = biological target: T5, mimic-CAIX (mutant of CAII: A65S, N67Q, I91L, F130V, V134L, L203A) (Homo sapiens, UniProt P00918, A65S/F130V/I91L/L203A/N67Q/V134L); details: intrinsic, calculated using pKa_CAZn(II)H2O of CAII, 37 °C
CAIX [13] = biological target: T3, CAIX
[14] = biological target: T5, mimic-CAIX (mutant of CAII: A65S, N67Q, I91L, F130V, V134L, L203A)
[15] = intrinsic, 37 °C, independent of pH and buffer
[16] = observed, sodium phosphate buffer pH 7.0, 37 °C, ITC

Chain of CAVI (P23280 18-308): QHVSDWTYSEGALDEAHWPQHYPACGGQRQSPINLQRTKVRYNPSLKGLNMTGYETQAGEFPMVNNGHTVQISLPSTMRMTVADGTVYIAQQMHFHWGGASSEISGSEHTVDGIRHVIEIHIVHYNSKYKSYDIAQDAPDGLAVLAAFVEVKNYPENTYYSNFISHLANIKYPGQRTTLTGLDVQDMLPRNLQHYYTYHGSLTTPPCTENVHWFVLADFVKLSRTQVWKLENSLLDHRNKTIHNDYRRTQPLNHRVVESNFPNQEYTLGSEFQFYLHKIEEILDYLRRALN
Chain of CAVB (Q9Y2D0 34-317): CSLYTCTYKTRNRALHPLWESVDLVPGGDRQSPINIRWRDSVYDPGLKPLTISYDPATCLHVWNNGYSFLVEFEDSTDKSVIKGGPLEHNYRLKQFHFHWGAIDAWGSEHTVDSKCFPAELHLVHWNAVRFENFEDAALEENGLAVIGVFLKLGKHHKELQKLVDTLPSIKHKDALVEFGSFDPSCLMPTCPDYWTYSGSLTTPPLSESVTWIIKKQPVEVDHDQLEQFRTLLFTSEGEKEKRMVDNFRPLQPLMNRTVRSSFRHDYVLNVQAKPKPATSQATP
Chain of CAXIII (Q8N1Q1 whole entry): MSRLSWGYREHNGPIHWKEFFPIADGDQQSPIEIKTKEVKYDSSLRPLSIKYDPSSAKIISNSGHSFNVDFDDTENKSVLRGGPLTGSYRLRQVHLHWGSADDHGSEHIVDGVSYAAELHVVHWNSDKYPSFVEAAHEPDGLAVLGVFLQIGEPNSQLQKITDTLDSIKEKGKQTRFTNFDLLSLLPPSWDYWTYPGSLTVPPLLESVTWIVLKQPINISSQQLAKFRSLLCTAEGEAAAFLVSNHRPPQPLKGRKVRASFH
Chain of CAVII (P43166 whole entry): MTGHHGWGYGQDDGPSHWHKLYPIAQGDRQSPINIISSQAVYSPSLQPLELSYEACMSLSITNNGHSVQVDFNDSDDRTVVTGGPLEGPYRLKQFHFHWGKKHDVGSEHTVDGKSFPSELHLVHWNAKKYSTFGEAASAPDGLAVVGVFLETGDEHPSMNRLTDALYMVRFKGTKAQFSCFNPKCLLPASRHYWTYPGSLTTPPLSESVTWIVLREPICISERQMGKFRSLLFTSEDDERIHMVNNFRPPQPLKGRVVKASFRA
Chain of CAIV (P22748 19-312): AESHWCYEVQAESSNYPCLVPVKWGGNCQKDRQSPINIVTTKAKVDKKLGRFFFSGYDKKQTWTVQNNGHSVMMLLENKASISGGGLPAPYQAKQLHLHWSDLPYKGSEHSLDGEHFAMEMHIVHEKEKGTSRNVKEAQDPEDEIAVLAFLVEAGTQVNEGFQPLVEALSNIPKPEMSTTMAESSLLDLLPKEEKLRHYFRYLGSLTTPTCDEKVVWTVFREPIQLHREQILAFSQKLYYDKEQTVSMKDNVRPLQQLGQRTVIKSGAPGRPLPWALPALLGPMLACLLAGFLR
T4 sequence (O43570 25-354): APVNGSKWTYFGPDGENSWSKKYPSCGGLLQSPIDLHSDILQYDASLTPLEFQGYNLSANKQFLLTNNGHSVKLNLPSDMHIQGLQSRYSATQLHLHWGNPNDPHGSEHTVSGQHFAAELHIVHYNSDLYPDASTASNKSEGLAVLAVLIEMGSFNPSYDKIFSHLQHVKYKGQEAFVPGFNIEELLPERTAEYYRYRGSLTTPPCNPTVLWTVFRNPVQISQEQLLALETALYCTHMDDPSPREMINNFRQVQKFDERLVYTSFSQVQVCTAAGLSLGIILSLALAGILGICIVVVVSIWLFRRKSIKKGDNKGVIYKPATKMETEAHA
T1 sequence (P00915 whole entry): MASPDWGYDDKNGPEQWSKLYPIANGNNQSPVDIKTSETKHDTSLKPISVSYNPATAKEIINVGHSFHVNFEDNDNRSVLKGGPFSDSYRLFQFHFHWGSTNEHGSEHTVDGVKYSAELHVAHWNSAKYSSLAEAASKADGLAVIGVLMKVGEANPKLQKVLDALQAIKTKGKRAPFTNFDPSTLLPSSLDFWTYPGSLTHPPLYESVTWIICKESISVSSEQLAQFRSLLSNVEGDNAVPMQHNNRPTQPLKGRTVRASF
Chain of CAIII (P07451 whole entry): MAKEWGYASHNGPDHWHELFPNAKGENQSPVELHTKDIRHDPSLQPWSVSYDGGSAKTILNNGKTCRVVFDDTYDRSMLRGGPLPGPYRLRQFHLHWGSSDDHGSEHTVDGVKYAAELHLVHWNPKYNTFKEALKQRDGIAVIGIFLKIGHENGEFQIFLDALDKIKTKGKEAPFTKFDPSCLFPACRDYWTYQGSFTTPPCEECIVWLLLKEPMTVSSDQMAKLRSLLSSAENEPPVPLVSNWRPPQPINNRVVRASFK
Chain of CAXIV (Q9ULX7 16-337): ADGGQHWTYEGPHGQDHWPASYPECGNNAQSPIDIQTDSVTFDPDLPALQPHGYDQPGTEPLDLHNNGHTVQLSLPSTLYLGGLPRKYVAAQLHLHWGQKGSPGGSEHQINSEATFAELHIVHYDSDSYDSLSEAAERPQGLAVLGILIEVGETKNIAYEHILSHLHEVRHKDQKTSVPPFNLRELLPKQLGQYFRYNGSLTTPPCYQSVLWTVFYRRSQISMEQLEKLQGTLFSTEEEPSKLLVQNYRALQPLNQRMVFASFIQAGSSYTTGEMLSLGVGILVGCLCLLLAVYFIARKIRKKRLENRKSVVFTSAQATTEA
Chain of CAVA (P35218 39-305): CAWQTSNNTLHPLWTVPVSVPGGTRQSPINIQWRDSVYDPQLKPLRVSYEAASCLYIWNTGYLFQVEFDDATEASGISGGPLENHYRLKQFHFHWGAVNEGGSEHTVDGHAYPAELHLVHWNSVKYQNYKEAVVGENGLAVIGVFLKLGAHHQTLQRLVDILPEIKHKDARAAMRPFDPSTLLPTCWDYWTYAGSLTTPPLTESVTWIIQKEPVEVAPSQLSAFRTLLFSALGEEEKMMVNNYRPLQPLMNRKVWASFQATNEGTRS

Row | SMILES | ΔGintr CAI (CAI [1]) [kcal/mol] | ΔGobs CAI (CAI [1]) [kcal/mol] | ΔGintr CAII (CAII [2]) [kcal/mol] | ΔGobs CAII (CAII [2]) [kcal/mol] | ΔGintr CAVA (CAVA) [kcal/mol] | ΔGobs CAVA (CAVA) [kcal/mol] | ΔGintr CAVB (CAVB) [kcal/mol] | ΔGobs CAVB (CAVB) [kcal/mol] | ΔGobs CAVI (CAVI) [kcal/mol] | ΔGintr CAVII (CAVII) [kcal/mol] | ΔGobs CAVII (CAVII) [kcal/mol] | ΔGintr CAIX (CAIX [3]) [kcal/mol] | ΔGobs CAIX (CAIX [3]) [kcal/mol] | ΔGobs CAXIII (CAXIII) [kcal/mol] | ΔGintr CAXIV (CAXIV) [kcal/mol] | ΔGobs CAXIV (CAXIV) [kcal/mol] | f RSO2NH-, fraction of deprotonated sulfonamide [4] | pKa [4] | ΔHintr CAXII (CAXII [5]) [kcal/mol] | ΔHobs CAXII (CAXII [5]) [kcal/mol] | further results
1 | COC(=O)c1cc(S(N)(=O)=O)c(Cl)cc1SC1CCCCC1 [Compound 5b, Methyl 4-chloro-2-cyclohexylsulfanyl-5-sulfamoylbenzoate] | -12.6 | -9.2 | -14.8 | -10.9 | -11.3 | -7.65 | -15.5 | -11.7 | -9.49 | -14.9 | -10.9 | -15.7 | -11.5 | -11.4 | -15.8 | -11.8 | 0.4% | 9.4 | -10.4 | -6.5 | ΔGobs CAIII (CAIII): ≥ -5.26 kcal/mol; ΔGintr CAIV (CAIV): -14.4 kcal/mol; ΔGobs CAIV (CAIV): -10.2 kcal/mol; ΔGintr CAXIII (CAXIII): -14.8 kcal/mol; -TΔSintr CAXII (CAXII [5]): -4.76 kcal/mol; N (ITC, observed fitted parameter) CAXII (CAXII [5]; single repeats, pH 7.0, 37 °C, Figure S8): 1.0 and 1.1; Δp_RSO2NH2H, protonation enthalpy of sulfonamide group [6]: -7.96 kcal/mol
2 | COC(=O)c1cc(S(N)(=O)=O)c(Cl)cc1S(=O)(=O)c1ccccc1 [Compound 9a, Methyl 2-(benzenesulfonyl)-4-chloro-5-sulfamoylbenzoate] | -11.5 | -9.7 | -15.1 | -12.8 |  |  | -13.3 | -11.2 | -10.3 | -15.6 | -13.3 |  | -12 | -11.7 |  | -12.9 | 5.9% and 5.94% | 8.2 | -9.08 | -6.55 | binding to CAII stronger than to CAXII (factor) (CAII [7]): 26 fold; ΔGintr CAVI (CAVI): -13.5 kcal/mol; ΔHintr CAI (CAI [8]; [15]): -9.49 kcal/mol; ΔHobs CAI (CAI [8]; [16]): -4.25 kcal/mol; ΔHintr CAII (CAII [9]; [15]): -5.57 kcal/mol; ΔHobs CAII (CAII [9]; [16]): -2.46 kcal/mol; -TΔSintr CAXII (CAXII [5]): -4.11 kcal/mol; Δp_RSO2NH2H, protonation enthalpy of sulfonamide group [6]: -6.91 kcal/mol
3 | COC(=O)c1cc(S(N)(=O)=O)c(SCCc2ccccc2)cc1Cl [Compound 3d, Methyl 2-chloro-4-[(2-phenylethyl)sulfanyl]-5-sulfamoylbenzoate] | -10.7 | -6.93 | -13.8 | -9.61 | -9.54 | -5.59 | -11.2 | -7.1 | -8.8 | -14.2 | -9.94 | -15.7 | -11.2 | -10.5 | -14.7 | -10.4 | 0.3% and 0.25% | 9.6 | -12 | -6.19 | ΔGintr CAVI (CAVI): -14 kcal/mol; Δp_RSO2NH2H, protonation enthalpy of sulfonamide group [6]: -9.8 kcal/mol
4 | COC(=O)c1cc(S(N)(=O)=O)c(S(=O)(=O)CCc2ccccc2)cc1Cl [Compound 7d, Methyl 2-chloro-4-(2-phenylethylsulfonyl)-5-sulfamoylbenzoate] | -9.27 |  | ≥ -9.73 | ≥ -5.26 | ≥ -9.46 | ≥ -5.26 | ≥ -9.66 | ≥ -5.26 | -5.5 | ≥ -9.8 | ≥ -5.26 | -12.1 | -7.34 | -6.6 | ≥ -9.8 | ≥ -5.26 | 0.2% |  |  |  | ΔGintr CAIII (CAIII): ≥ -10.1 kcal/mol; ΔGobs CAIII (CAIII): ≥ -5.26 kcal/mol; ΔGintr CAIV (CAIV): ≥ -9.99 kcal/mol; ΔGobs CAIV (CAIV): ≥ -5.26 kcal/mol; ΔGintr CAVI (CAVI): -10.9 kcal/mol; ΔGintr CAXII (CAXII [10]; converted from Kd_intr, independent of pH): -10.9 kcal/mol; ΔGobs CAXII (CAXII [10]; converted from Kd_obs, pH 7.0, FTSA): -6.33 kcal/mol; ΔGintr CAXIII (CAXIII): -10.6 kcal/mol; solubility [11]: LS
5 | COC(=O)c1cc(S(N)(=O)=O)c(SC2CCCCC2)cc1Cl [Compound 3b, Methyl 2-chloro-4-(cyclohexylsulfanyl)-5-sulfamoylbenzoate] | -10.5 | -6.79 | -13.6 | -9.37 | -9.61 | -5.66 | -11.1 | -7.03 | -9.2 |  | -9.68 | -17.9 | -13.5 | -10.3 | -15.5 | -11.2 | 0.3% and 0.25% | 9.6 | -11.5 | -6.96 | ΔGintr CAIII (CAIII): -10.8 kcal/mol; ΔGobs CAIII (CAIII): -6.24 kcal/mol; ΔGintr CAIV (CAIV): -13.6 kcal/mol; ΔGobs CAIV (CAIV): -9.08 kcal/mol; ΔGintr CAVI (CAVI): -14.4 kcal/mol; binding affinity, times stronger to CAIX than CAXII (CAIX [3]): 150 times; native CAIX bound more strongly than mimic-CAIX (CAIX [3]): 10 fold; ΔGintr CAXIII (CAXIII): -14.1 kcal/mol; ΔGintr mimic-CAIX [12]: -16.1 kcal/mol; -TΔSintr CAIX (CAIX [13]; intrinsic, 37 °C): -10.8 kcal/mol; ΔHintr CAIX (CAIX [13]; [15]): -7.15 kcal/mol; ΔHobs CAIX (CAIX [13]; [16]): -2.51 kcal/mol; ΔHintr mimic CAIX ([14]; intrinsic, 37 °C, calculated using protonation enthalpy of CAII): -7.46 kcal/mol; ΔHobs mimic CAIX [14, 16]: -2.39 kcal/mol; -TΔSintr CAXII (CAXII [5]): -3.42 kcal/mol; Δp_RSO2NH2H, protonation enthalpy of sulfonamide group [6]: -8.53 kcal/mol
